According to article PMC6219798, “A novel decarboxylating amidohydrolase involved in avoiding metabolic dead ends during cyanuric acid catabolism in Pseudomonas sp. strain ADP” (PLoS ONE, 2018):

Tests used:
[1] = target: T1, AtzEG (Pseudomonas sp. ADP, UniProt Q936X3); assay: GDH-coupled ammonia release at […] nm; type: biochemical; details: substrate made in situ by AtzD from 1 mM cyanuric acid; 0.17 uM enzyme, 25 mM potassium phosphate pH 8.5
T1 construct: gene atzE; AtzE and AtzG co-expressed from pACYCDuet-1 in E. coli BL21(DE3); heterotetramer; with 1-carboxybiuret hydrolase subunit AtzG
T1 sequence (Q936X3 1-457): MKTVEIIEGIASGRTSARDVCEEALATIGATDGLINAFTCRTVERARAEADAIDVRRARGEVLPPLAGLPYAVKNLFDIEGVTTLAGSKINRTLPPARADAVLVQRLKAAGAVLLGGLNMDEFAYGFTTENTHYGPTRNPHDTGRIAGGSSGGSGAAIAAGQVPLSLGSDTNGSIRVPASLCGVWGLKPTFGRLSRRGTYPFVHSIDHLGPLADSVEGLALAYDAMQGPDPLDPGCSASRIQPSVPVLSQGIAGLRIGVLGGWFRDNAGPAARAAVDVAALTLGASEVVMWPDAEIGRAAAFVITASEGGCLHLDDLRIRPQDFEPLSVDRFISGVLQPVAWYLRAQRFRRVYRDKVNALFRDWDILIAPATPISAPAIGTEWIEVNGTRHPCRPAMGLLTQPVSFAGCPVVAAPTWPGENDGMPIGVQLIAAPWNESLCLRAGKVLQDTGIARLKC
T1 sequence (A0A384E126 1-68 partner): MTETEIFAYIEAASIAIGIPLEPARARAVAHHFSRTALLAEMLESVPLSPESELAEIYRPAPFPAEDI

[2] = target: T2, AtzD (Pseudomonas sp. ADP, UniProt P58329); assay: UV absorbance at […] nm, ring opening; type: biochemical; details: 12 uM AtzD, 1 mM cyanuric acid
T2 construct: His6-tagged, E. coli BL21(DE3), Ni-NTA purified; cloning described elsewhere
T2 sequence (P58329 1-363): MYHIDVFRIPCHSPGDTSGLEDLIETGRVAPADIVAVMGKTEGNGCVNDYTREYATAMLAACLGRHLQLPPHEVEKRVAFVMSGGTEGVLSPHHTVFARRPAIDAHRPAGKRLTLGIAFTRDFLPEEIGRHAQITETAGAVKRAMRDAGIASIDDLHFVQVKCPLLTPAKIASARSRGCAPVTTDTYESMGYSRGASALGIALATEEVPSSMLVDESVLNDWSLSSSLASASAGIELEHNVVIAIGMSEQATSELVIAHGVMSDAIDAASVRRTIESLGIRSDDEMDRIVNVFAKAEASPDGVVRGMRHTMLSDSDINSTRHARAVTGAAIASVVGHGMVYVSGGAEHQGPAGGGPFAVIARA

[3] = target: AtzH from Pseudomonas sp. strain ADP, his-tag removed (Pseudomonas sp. strain ADP); assay: SEC; size exclusion chromatography of AtzH after removal of the his-tag; Superdex preparation grade resin, 130 mL column, 25 mM HEPES, 200 mM NaCl, pH 7.5

In the case of `NC(=O)NC(=O)NC(=O)O` [1-carboxybiuret], the “GDH-coupled ammonia release at 340 nm” value [1] is reported as “The substrate for AtzEG (1-carboxybiuret) is unstable and was therefore produced in situ”.
In the case of `O=c1[nH]c(=O)[nH]c(=O)[nH]1` [cyanuric acid, 1,3,5-triazine-2,4,6-triol], the “UV absorbance at 214 nm, ring opening” value [2] is reported as “incubating AtzD and its substrate in the presence or absence of AtzH”.
With “AtzH from Pseudomonas sp. strain ADP, his-tag removed (enzyme)” the stoichiometry N [3] was 2.
